Key:
[1] = molecular target: T1, partially purified rat brain farnesyl protein transferase (FPT) (Rattus norvegicus, UniProt Q02293+Q04631); experiment: In vitro enzyme assay: inhibition of Ras-CVLS farnesylation by farnesyl protein transferase (H-ras FPT); format: biochemical
T1 construct: partially purified rat brain farnesyl protein transferase (FPT); from tissue; host or cells: rat brain
Experimental: 1. In vitro enzyme assays: FPT IC50 (inhibition of farnesyl protein transferqase, in vitro enzyme assay) are determined by the methods disclosed in […] or WO 95/10516.

[2] = test system: Ras processing in COS cells; experiment: Cell-based assay: COS cells activity, inhibition of Ras processing
Experimental: 2. Cell-based assay. COS IC50 values refer to the COS cells activity inhibition of Ras processing, are determined by the methods disclosed in […] or WO 95/10516.

CC(C)S(=O)(=O)N1CCC(C2c3ncc(Br)cc3CCc3cc(Cl)cc(Br)c32)CC1 (single isomer, unassigned; (+)) [Example 7, (+)-4-(3,10-Dibromo-8-chloro-11-dihydro-5H-benzo[5,6]cyclohepta[1,2-b]pyridin-11-yl)-1-(isopropylsulfonyl)pipiridine]
IC50 [1]: 110 nM
melting point: 203 to 205 °C

O=S(=O)(CC(F)(F)F)N1CCC(C2c3ncc(Br)cc3CCc3cc(Cl)cc(Br)c32)CC1 (single isomer, unassigned; (+)) [Example 10, (+)-4-(3,10-Dibromo-8-chloro-11-dihydro-5H-benzo[5,6]cyclohepta[1,2-b]pyridin-11-yl)-1-(trifluoroethylsulfonyl)pipiridine]
IC50 [1]: 89 nM
melting point: 174 to 175 °C

CS(=O)(=O)N1CCC(C2c3ncc(Br)cc3CCc3cc(Cl)cc(Cl)c32)CC1 (single isomer, unassigned; (+)) [Example 1, (+)-4-(3-Bromo-8,10-dichloro-6,11-dihydro-5H-benzo[5,6]cyclohepta[1,2-b]pyridin-11-yl)-1-(methylsulfonyl)pipiridine]
IC50 [1]: 8 nM
melting point: 160 to 163 °C
IC50 [2]: 420 nM

CCS(=O)(=O)N1CCC(C2c3ncc(Br)cc3CCc3cc(Cl)cc(Br)c32)CC1 (single isomer, unassigned; (+)) [Example 5, (+)-4-(3,10-Dibromo-8-chloro-11-dihydro-5H-benzo[5,6]cyclohepta[1,2-b]pyridin-11-yl)-1-(ethylsulfonyl)pipiridine]
IC50 [1]: 15.4 nM
melting point: 202 to 203 °C

CS(=O)(=O)N1CCC(C2c3ncc(Br)cc3CCc3cc(Cl)cc(Br)c32)CC1 (single isomer, unassigned; (+)) [Example 4, (+)-4-(3,10-Dibromo-8-chloro-11-dihydro-5H-benzo[5,6]cyclohepta[1,2-b]pyridin-11-yl)-1-(methylsulfonyl)pipiridine]
IC50 [1]: 7 nM
melting point: 216 to 217 °C
IC50 [2]: 15 nM

O=S(=O)(N1CCC(C2c3ncc(Br)cc3CCc3cc(Cl)cc(Br)c32)CC1)C(F)(F)F (single isomer, unassigned; (+)) [Example 9, (+)-4-(3,10-Dibromo-8-chloro-11-dihydro-5H-benzo[5,6]cyclohepta[1,2-b]pyridin-11-yl)-1-(trifluoromethylsulfonyl)pipiridine]
IC50 [1]: 34 nM
melting point: 111 to 112 °C

CN(C)S(=O)(=O)N1CCC(C2c3ncc(Br)cc3CCc3cc(Cl)cc(Cl)c32)CC1 (single isomer, unassigned; (+)) [Example 2, (+)-4-(3-Bromo-8,10-dichloro-6,11-dihydro-5H-benzo[5,6,]cyclohepta[1,2-b]pyridin-11-yl)-N-N-dimethyl-1-piperidinesulfonamide]
IC50 [1]: 164 nM
melting point: 202 to 203 °C

NS(=O)(=O)N1CCC(C2c3ncc(Br)cc3CCc3cc(Cl)cc(Cl)c32)CC1 (single isomer, unassigned; (+)) [Example 3, (+)-4-(3-Bromo-8,10-dichloro-6,11-dihydro-5H-benzo[5,6]cyclohepta[1,2-b]pyridin-11-yl)-1-(aminosulfonyl)piperidine]
IC50 [1]: 26 nM
melting point: 133 to 134 °C

O=S(=O)(c1ccccc1)N1CCC([C@H]2c3ncc(Br)cc3CCc3cc(Cl)cc(Br)c32)CC1 [Example 12, (+)-4-(3,10-Dibromo-8-chloro-6,11-dihydro-5H-benzo[5,6]cyclohepta[1,2-b]pyridin-11(R)-yl)-1-(phenylsulfonyl)pipiridine]
IC50 [1]: 179 nM

CCCS(=O)(=O)N1CCC(C2c3ncc(Br)cc3CCc3cc(Cl)cc(Br)c32)CC1 (single isomer, unassigned; (+)) [Example 6, (+)-4-(3,10-Dibromo-8-chloro-11-dihydro-5H-benzo[5,6]cyclohepta[1,2-b]pyridin-11-yl)-1-(propylsulfonyl)pipiridine]
IC50 [1]: 32 nM
melting point: 97 to 98 °C

O=S(=O)(c1ccc(-c2ccon2)s1)N1CCC([C@H]2c3ncc(Br)cc3CCc3cc(Cl)cc(Br)c32)CC1 [Example 14, (+)-4-(3,10-Dibromo-8-chloro-6,11-dihydro-5H-benzo[5,6]cyclohepta[1,2-b]pyridin-11(R)-yl)-1-[(5-(3-isoxazolyl)-2-thienyl]sulfonyl]pipiridine]
IC50 [1]: 276 nM

Cn1cnc(S(=O)(=O)N2CCC([C@H]3c4ncc(Br)cc4CCc4cc(Cl)cc(Br)c43)CC2)c1 [Example 13, (+)-4-(3,10-Dibromo-8-chloro-6,11-dihydro-5H-benzo[5,6]cyclohepta[1,2-b]pyridin-11(R)-yl)-1-[(1-methyl-1H-imidazol-4-yl)sulfonyl]pipiridine]
IC50 [1]: 85 nM

C=CS(=O)(=O)N1CCC(C2c3ncc(Br)cc3CCc3cc(Cl)cc(Br)c32)CC1 (single isomer, unassigned; (+)) [Example 11, (+)-4-(3,10-Dibromo-8-chloro-11-dihydro-5H-benzo[5,6]cyclohepta[1,2-b]pyridin-11-yl)-1-(vinylsulfonyl)pipiridine]
IC50 [1]: 32 nM

CCCCS(=O)(=O)N1CCC(C2c3ncc(Br)cc3CCc3cc(Cl)cc(Br)c32)CC1 (single isomer, unassigned; (+)) [Example 8, (+)-4-(3,10-Dibromo-8-chloro-11-dihydro-5H-benzo[5,6]cyclohepta[1,2-b]pyridin-11-yl)-1-(butylsulfonyl)pipiridine]
IC50 [1]: 320 nM
melting point: 73 to 74 °C

From patent US6426352B1, “Sulfonamide inhibitors of farnesyl-protein transferase” (Schering Corporation, priority 1997, dated 2002)
